PMC9456400 (International Journal of Molecular Sciences, 2022)

Tests used:
[1] = target: recombinant human CYP3A4 (Homo sapiens, UniProt P08684); assay: Vivid CYP450 Red screening assay (BOMR substrate, baculosomes)
Experimental: The Vivid® BOMR substrate is a blocked dye that yields a minimal fluorescence signal until metabolized by CYP3A4 into products that are highly fluorescent in aqueous solutions (Figure 5, left panel).
The stringent validation process ensures the highest quality data possible for the 10-point titration, which was performed in duplicate (n = 3). An additional two control wells for each compound concentration tested are conducted to detect autofluorescent compound interference.

[2] = system: Huh-7 cells; assay: UHPLC-ESI-QTOF-MS/MS lipidomics; assay type: cell-based, human
Source text: We then questioned whether lorlatinib used at concentrations efficacious against ALK-rearranged lung cancer cells but non-toxic to ALK-negative cells could promote substantial lipidome changes in Huh-7 cells (Figure 1B; Table 1). Accordingly, […], and the lipidome was characterized in a semi-targeted approach using a UHPLC-ESI-QTOF-MS/MS method, in which we matched mass spectra with commercial standards (SPLAH mix), databases such as METLIN-PCDL and Lipid MAPS (accessed on 1 July 2022), as well as corroboration of tentative lipid species upon obtaining their MS/MS spectrum. Representative chromatograms of lipidomic analyses in Huh-7 cells can be found in Figure S1.
Lipid extraction, preparation of external calibration curves, and quality control approaches were carried out as described. Samples (2 μL) were injected directly into a 1290 Infinity UHPLC system coupled with a dual Agilent jet stream ESI source to a 6550 QTOF-MS instrument (Agilent Technologies, Santa Clara, CA, USA). UHPLC-ESI-QTOF-MS conditions, data analysis and indirect quantification of selected lipid species using MassHunter Qualitative Analysis B.07.00 software (Agilent Technologies), and corroboration of the tentative characterization of compound match entities using the Lipid Maps database (www.lipidmaps.org, accessed on 1 July 2022) and targeted MS/MS acquisition on LC-QTOF-MS instrument, have been previously described in detail.
Differentially expressed lipid species from untargeted lipidomic data were analyzed by generating volcano plots indicating statistical significance versus magnitude of fold-change for each lipid species (cutoff of Benjamini–Hochberg corrected p-value < 0.05 and log2 fold-change > 1 or […]).

[3] = system: Huh-7 cells; assay: Colorimetric enzymatic quantification of cholesteryl esters and triglycerides; assay type: cell-based, human; details: lorlatinib-treated (1 μmol/L) Huh-7 cells, silibinin 100 μmol/L, 48 h
[4] = system: Huh-7 cells; assay: Oil Red O and LipidTOX staining of neutral lipids; assay type: cell-based, human; details: Huh-7, chronic exposure 7 days; silibinin 10 μmol/L as co-treatment with lorlatinib
Experimental: We first employed a conventional index of fatty liver disease––the intracellular accumulation of neutral lipids (steatosis)––to confirm the ability of lorlatinib to trigger hypertriglyceridemia and hypercholesteremia.
(§1) For assessment of neutral lipid formation, cells were washed in PBS, fixed with 4% paraformaldehyde for 30 min, washed in distilled water, and then briefly incubated in 60% isopropanol. Following equilibration, cells were stained with a working solution (60%) of Oil Red O for 20 min. An Oil Red O stock solution was prepared by dissolving 0.35% w/v Oil Red O in 100 mL 100% isopropanol. HCS LipidTOX™ Green Neutral Lipid Stain (Invitrogen; Cat. #H34475) was employed as a second staining cocktail for visualization of intracellular neutral lipids. Formaldehyde fixation and preparing/using the labeling solution was carried out as per the manufacturer’s instructions.

[5] = system: HepG2 cells; assay: Oil Red O staining of neutral lipids; assay type: cell-based, human; details: HepG2, acute exposure 48 h; silibinin 100 μmol/L as co-treatment with lorlatinib
Experimental: To confirm these findings, we employed an independent in vitro model of fatty liver disease involving non-tumorigenic HepG2 cells, which are routinely employed as an inducible fatty liver cell model to screen for therapeutic drugs to eliminate lipid accumulation.
as §1

[6] = system: Huh-7 cells; assay: Toxicity of the combination in long-term confluent Huh-7 cells; assay type: cell-based, human; details: silibinin as high as 100 μmol/L, Huh-7 growing confluent for more than 1 month
Source text: Our multi-faceted approach involving computational modeling, neural network-based prediction models to classify CYP inhibition, and in vitro validation using recombinant human CYP3A4, confirms and further extends the notion that exposure to standard doses of silibinin-containing milk thistle preparations leading to relatively low peak systemic concentrations (1–10 μmol/L) are expected to be accompanied by low-risk for an inhibitory interaction of the first-pass clearance of lorlatinib at the hepatic level.

[7] = standard doses of silibinin-containing milk thistle preparations ref 57; cited from earlier work

Chain of recombinant human CYP3A4 (P08684 whole entry): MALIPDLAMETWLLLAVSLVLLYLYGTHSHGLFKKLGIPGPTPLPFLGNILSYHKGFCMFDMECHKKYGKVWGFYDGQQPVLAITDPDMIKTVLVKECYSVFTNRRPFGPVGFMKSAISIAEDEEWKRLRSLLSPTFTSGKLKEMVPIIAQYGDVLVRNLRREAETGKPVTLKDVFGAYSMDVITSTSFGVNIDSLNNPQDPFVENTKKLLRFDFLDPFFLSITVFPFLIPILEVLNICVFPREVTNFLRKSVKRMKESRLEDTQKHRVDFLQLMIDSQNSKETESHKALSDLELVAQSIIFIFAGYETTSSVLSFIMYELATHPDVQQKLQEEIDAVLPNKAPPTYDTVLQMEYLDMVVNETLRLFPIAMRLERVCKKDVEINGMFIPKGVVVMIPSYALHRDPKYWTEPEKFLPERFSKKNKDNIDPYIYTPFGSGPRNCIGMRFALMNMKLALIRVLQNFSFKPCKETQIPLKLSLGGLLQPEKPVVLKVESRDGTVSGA

| Structure (SMILES) | IC50 [1] [µM] | Change of lipid species, single agent ([2]; Huh-7, 48 h, lorlatinib 1 μmol/L, silibinin 100 μmol/L) | Effect of co-treatment on lorlatinib-induced rise of lipid species ([2]; Huh-7, silibinin 100 μmol/L with lorlatinib 1 μmol/L, 48 h) | Accumulation of cholesterol esters and triglycerides [3] | Accumulation of neutral lipids (lipid droplets) [4] | Accumulation of neutral lipids (lipid droplets) [5] | Toxic effects of the combination with lorlatinib [6] | Peak systemic concentrations [7] [µmol/L] |
| --- | --- | --- | --- | --- | --- | --- | --- | --- |
| CC(C)c1nc(N(C)S(C)(=O)=O)nc(-c2ccc(F)cc2)c1/C=C/[C@@H](O)C[C@@H](O)CC(=O)O [rosuvastatin] | > 300 | – | – | – | – | – | – | – |
| COc1cc(C2Oc3cc([C@H]4Oc5cc(O)cc(O)c5C(=O)[C@@H]4O)ccc3OC2CO)ccc1O (some centres unmarked) [silibinin] | – | significantly lowered the baseline abundance of many ChoE species | completely blunted the significant lorlatinib-induced rise in numerous ChoE and TG/DG species | inhibit the accumulation of cholesterol esters and triglycerides | notably decreased the quantity and size of the lipid droplets | markedly fewer and smaller neutral lipid depots | failed to observed significant toxic effects | 1 to 10 |
